According to a melting point compilation (Tetko et al.; mined from patent text by program, amines drawn as free bases though some values may be those of a salt):

| Compound | melting point [°C] |
| --- | --- |
| Cc1cc(NC(=O)C(C)(O)COc2cccc(F)c2)ccc1[N+](=O)[O-] (configuration not stated) | 83 to 86 |
| COc1cccc(-c2cn(N)c(N)n2)c1 | 181 to 182 |
| Cc1ccc(C2CCC(=O)Nc3ccccc32)cc1 (configuration not stated) | 178 to 181 |
| Cc1cc(C(O)(C(F)(F)F)C(F)(F)F)cc(C)c1S | 62 to 64 |
| O=C(O)CCc1cc(CCN2CCC(C(=O)c3ccc(F)cc3)CC2)cc2c1CCC(NS(=O)(=O)c1ccc(Cl)cc1)C2 (configuration not stated) | 210 |
| COC(COC(=O)C1=C(C)NC2=C(C(=O)CNC2)C1c1cccc(Cl)c1C)c1ccccc1 (configuration not stated) | 160 to 163 |
| OCCc1c(-c2ccccc2)n2nnnc2n2ncnc12 | 110 |
| Cn1cc(-c2cccc(I)c2)c(=O)c(-c2cccc(C(F)(F)F)c2)c1 | 178 to 181 |
| COc1cccc([C@@]23CCC[C@@H]2CN(C)CC3)c1 (relative stereo) | 40 to 43 |
| CCN(C(C)=O)c1cccc(-c2ccnc3c(C(=O)c4ccccc4)cnn23)c1 | 158 to 160 |
| Oc1ccc(-c2cn(-c3ccc(C(F)(F)F)cc3F)nn2)cc1 | 215 to 216 |
| Cc1cnc2n1-c1cc(Cl)c(Cl)cc1N=C(c1ccc(-n3c(C)nc4cnccc43)cc1)C2 | 243 to 246 |
| CCCCCNc1cccc2c1C(=O)N(C1CCC(=O)NC1=O)C2=O (configuration not stated) | 141 to 143 |
| O=C(NC[C@@H]1CN2C(=O)C[C@H]2O1)c1cc(F)c(F)cc1F (racemic) | 76.5 to 78.1 |
| Cc1ccc(C)n1Nc1nnc(N2CCOCC2)c2ccccc12 | 255 to 260 |
| CC1(C)CON(Cc2ccc(N3C(=O)c4ccccc4C3=O)cc2Br)C1=O | 158 to 159 |
| Cc1cccc(NC(=O)CC23CC4CC(CC(C4)C2)C3)c1C | 170 |
| O=c1[nH]c2ccccc2n1CCCN1CCC(C(O)(c2ccc(F)cc2)c2ccc(F)cc2)CC1 | 141 to 143 |
| CC(C)(Sc1ccc(-n2cncn2)nn1)C(O)(Cn1cncn1)c1ccc(F)cc1F (single isomer, unassigned; (+)) | 226 to 227 |
| O=[N+]([O-])c1ccc(C(Cl)Cl)cc1 | 44 to 46 |
| O=C(Cn1cnnn1)N(O)CCCP(=O)(O)O | 157 to 159 |
| Cc1nnc2n1-c1ccccc1C(c1ccc(Cl)cc1)=NC2NN(C(=O)NN)C(=O)c1ccccc1 (configuration not stated) | 243 to 245 |
| N=C(NS(=O)(=O)c1ccc(F)cc1)N1CC(c2ccccc2)C(c2ccc(Cl)cc2)=N1 (configuration not stated) | 214 to 215 |

| Compound | melting point [°C] |
| --- | --- |
| O=c1ccn(CCO)c(C(O)c2ccc(F)cc2)c1O (configuration not stated) | 187 to 188 |
| CC1(C)COC(c2ccc3c(c2-c2c(C4=NC(C)(C)CO4)ccc4c2OCO4)OCO3)=N1 | 152 to 154 |
| OC(CN=CCc1cnc(-c2ccccc2)nc1-c1ccccc1)c1ccccc1 (configuration not stated) | 140 to 144 |
| O=c1[nH]c2cc(Cl)cc(Cl)c2c(O)c1Sc1ccc(OCc2ccccc2)cc1 | 224 to 227 |
| NC(=O)c1cc2cc(N3CCNCC3)ccc2o1 | 252 to 255 |
| CC1=CC(O)C(OC(=O)c2ccco2)C(C)(C)CC1=O (configuration not stated) | 102 to 104 |
| CCCCCCCCCCn1c(C)cc(C)c(C#N)c1=O | 82 to 83 |
| O=C(c1ccc2c(=O)n(CCCCN3CC=C(c4ccccc4)CC3)c(=O)[nH]c2c1)N1CCOCC1 | 206 to 210 |
| CN(C)C=CC(=O)CC(C)(C)C | 72 to 74 |
| CN1CCCC(COc2ccc(/C=c3\[nH]c(=O)/c(=C/c4ccccc4)[nH]c3=O)nc2)C1 (configuration not stated) | 326 to 328 |
| COCN1C(C)=C(C(=O)OCc2ccccc2)C(c2ccccc2C(F)(F)F)C(C(=O)OCc2ccccc2)=C1C | 94 to 95 |
| Cc1c(-c2ccc(O)cc2)sc(C#N)c1-c1ccc(O)cc1 | 282 to 284 |
| O=C1C=C(NC(=O)C(=O)c2cn(Cc3ccc(Cl)cc3)c3ccc(Cl)cc23)CO1 | 251 to 253 |
| CC1Cc2ccccc2P1c1ccccc1P(c1ccccc1)c1ccccc1 (single isomer, unassigned; (+)) | 40 to 42 |
| Cc1cc(-c2nc3cccnn3c2-c2ccnc(N)c2)ccc1F | 179 to 180 |
| COCOc1ccc(C(C(c2ccccc2)c2ccc(F)cc2)C(F)(F)F)cc1 (configuration not stated) | 85 to 88 |
| O=C(Nc1c(C(O)(C(F)(F)F)C(F)(F)F)ccc2ccccc12)c1cccc(C(F)(F)F)c1 | 187 to 188 |
| CC1=NN=C(c2ccc([N+](=O)[O-])cc2)c2cc3c(cc2C1)OCCOC3 | 204 to 206 |
| Cc1c[nH]c(Cc2ccc(O)cc2)n1 | 193 to 194 |
| CCCOc1nc2cc(Cn3ccnc3)ccc2nc1C | 85.5 |
| CSc1nc2ccnn2c(OCc2ccccc2)c1C#N | 194 |
| Cn1c(-c2ccccc2)cc(O)c(C(=N)c2ccccc2)c1=O | 238 to 240 |
| COCc1[nH]c(=O)c(C#N)c2c1CC(C)CC2 (configuration not stated) | 205 to 208 |

| Compound | melting point [°C] |
| --- | --- |
| COc1ccc(C2C(Oc3ccccc3)C(=O)N2c2ccc(C(=O)O)cc2)cc1 (configuration not stated) | 268 |
| N=C(N)SCc1c(Cl)ccc2c1oc1c(CSC(=N)N)c(Cl)ccc12 | > 220 |
| COC(=O)CCC(=O)c1ccc(CCCCNC(C)=O)cc1 | 94 to 95 |
| O=C(O)Cn1ccc(=O)n(Cc2cccc([N+](=O)[O-])c2)c1=O | 161 to 162 |
| Cc1c(N)noc1C(F)(F)F | 34.5 to 36 |
| COC(=O)c1cncnc1NCc1ccncc1 | 111 to 112 |
| CCCCCCCP(=O)(O)O[C@@H](CCCCN)C(=O)N1CCC[C@H]1C(=O)O | 180 to 186 |
| CCOCc1nc2c(N)nc3cccnc3c2n1CC1(O)CCC1 | 162 to 163 |
| CC(Oc1ncn(-c2cccc(F)c2)n1)C(N)=O (configuration not stated) | 156 to 158 |
| O=C(Nn1cnnc1)C1=NN(c2ccc(Cl)cc2Cl)C(c2ccc(Cl)cc2)C1 (configuration not stated) | 134 to 138 |
| C[C@H]1COc2c(N3C[C@@H](N)[C@@H](C4CC4)C3)c(F)cc3c(=O)c(C(=O)O)cn1c23 | 218 to 220 |
| Cn1ncnc1COc1nn2c(-c3ccc(F)cc3)nnc2cc1-c1ccsc1 | 268 to 269 |
| O=[N+]([O-])c1ccc2c3c([nH]c2c1)CCCCCC3 | 119 to 120 |
| O=C(O)Cn1c(=O)oc2cc(-c3ccccc3)c(Cl)cc21 | 200 to 203 |
| O=[N+]([O-])C=C1NCCCCN1 | 152 to 154 |
| CC(C)(C)OC(=O)Nc1ccc(C(=O)N2CCC(c3[nH]nc4c3C(=O)c3c(NC(=O)NN5CCOCC5)cccc3-4)CC2)cc1 | 212 to 214 |
| O=C(c1ccncc1)c1cnc2cc(Cl)ccc2c1Cl | 132 |
| C1=C(c2ccccc2)CCN(Cc2cncc(-c3ccccc3)c2)C1 | 80 to 82 |
| COc1c2c(c(C3CCCCC3)c3c4c(ccc13)OCO4)CNC2=O | 244 to 246 |
| COC(=O)C1(C(=O)OC)CCn2c(C(=O)c3ccccc3)cc(Br)c21 | 109 to 110 |
| CC(C)c1nc(COCc2ccccc2)n(CF)c1Sc1cc(Cl)cc(Cl)c1 | 115 to 117 |

Next, values leading:

| melting point [°C] | Compound |
| --- | --- |
| 223 to 225 | CC(C)Oc1c(C(=O)Nc2nnn[nH]2)sc2c1CCCC2 |
| 66 | CC(C)(C)c1cc(SCCO)cc(C(C)(C)C)c1O |
| 128 to 130 | COC(=O)c1[nH]c2ccc(OC)cc2c1SC |
| 154 to 156 | COc1cc2nc(C(C)(C)C)sc2cc1NC(=S)SCCC(=O)O |
| 242 to 245 | CCOc1c(C(N)=O)cnc2c(NC(=O)c3c(Cl)cccc3Cl)cccc12 |
| 169 to 171 | COc1ccc(CNc2nc(N3CCC[C@H]3CO)cnc2C(=O)O)cc1Cl |
| 134 to 136 | COc1ccc(CNc2n[nH]cc2C(=O)O)cc1OC1CCCC1 |
| > 280 | COc1ccc(/C=C/c2nc3c([nH]2)c(=O)n(C)c(=O)n3C)cc1Br |
| 172 to 173 | COc1cc2c(cc1O)C1Cc3c(Cl)cc(OC)c(OC(C)=O)c3CN1CC2 (single isomer, unassigned; (-)) |
| 145 | COc1cc(C=O)ccc1NC(C)=O |
| 67 to 68 | CCCCCCCNC(=O)n1nc(Oc2ncc(C(F)(F)F)cc2Cl)c(Cl)c1C |
| 83 to 85 | O=C(O)CCc1ccc(Cl)cc1F |
| 133 to 135 | CC(C)(C)ONC(=O)C(C)(C)CCOc1ccc(C2=NNC(=O)CC2)cc1Cl |
| 175 to 178 | CC(C)(C)c1cc(C=Cc2ccccc2NC(=O)N(Cc2ccccc2)Cc2ccccc2)cc(C(C)(C)C)c1O |
| 264 to 266 | COc1cc2cc(C(=O)O)c(C(=O)O)nc2cc1OC |
| 78 to 79 | COC(=O)c1ccc(Br)cc1CBr |
| 167 to 169 | COC(=O)c1ccc(CCNC(=O)C[C@H]2O[C@H](c3cccc(OC)c3OC)c3cc(Cl)ccc3N(CC(C)(C)CO)C2=O)cc1 |
| 161 to 162 | COC(=O)c1cc(C(=O)N2CCC(CO)CC2)c2cc(Cc3ccc(F)cc3)cnc2c1O |
| 117 to 119 | COc1cccc(C(=O)N(C(=O)OCCl)N(C(=O)c2cc(C)cc(C)c2)C(C)(C)C)c1C |
| 218 to 221 | CN(C)CCNC(=O)c1cn(C)c(=O)c2cc3cccnc3nc12 |
| 120 to 124 | CC(OC(C)(C)C(=O)O)c1cc(-c2ccc(Cl)cc2)no1 (single isomer, unassigned; (+)) |
| 108 | CCC1=NNC(C)=C(C(=O)OC(C)C)C1c1cccc([N+](=O)[O-])c1 (configuration not stated) |
| 173 to 175 | Cc1cnc(C2=NC(C)(C(C)C)C(=O)N2)c(C(=O)c2ccc(C)s2)c1 (configuration not stated) |
| 90 to 91 | CCOC(=O)COc1ccc(C(=O)c2c(Br)cnn2CC)c(Cl)c1Cl |
| 246 to 249 | CCOC(=O)c1cnn(C)c1C(=O)Nc1ccn2nc(-c3cccc(F)c3)nc2c1 |
| 88 to 90 | CCOC(=O)Cc1ccc2c(c1)sc1ccc(Cl)cc12 |
| 173 to 174 | O=C(O)CCc1conc1-c1ccc(C(F)(F)F)cc1 |
| 210 to 212 | Cc1c(C)c2c(c(C)c1NC(=O)CC(C)(C)C)C(c1ccccn1)C(C)(C)O2 (configuration not stated) |
| 138 to 141 | CCN(CC)c1ccc(CN2CCC(NC(=O)Nc3ccccc3CCc3cc(C(C)(C)C)c(O)c(C(C)(C)C)c3)CC2)cc1 |
| 174 to 176 | Cc1cc(OCC(=S)Nc2cccc(C(=O)O)c2)ccc1C(C)C |
